Data published in the supplement of paper PMC10307832.

Columns and labels:
Assay in all cases: relative viability (nuclei count vs DMSO), 5 days (fraction); higher = more cells survive
Pictilisib + OSI-027 = compound: CS(=O)(=O)N1CCN(Cc2cc3nc(-c4cccc5[nH]ncc45)nc(N4CCOCC4)c3s2)CC1 [Pictilisib] + COc1cccc2cc(-c3nc([C@H]4CC[C@H](C(=O)O)CC4)n4ncnc(N)c34)[nH]c12 [OSI-027] (partner 0.5 µM)
In short: (§1)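 Five library-drug doses in √10 steps were combined with a fixed anchor-drug dose, or a single drug was given alone, by pin tool to lung cancer cell lines in 1536-well plates the day after seeding. Nuclei were stained and counted after 5 days. Relative viability is the nuclei count in treated wells over that in vehicle wells, taken as the median of duplicate plates.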

MK-2206 + Bortezomib = compound: NC1(c2ccc(-c3nc4ccn5c(=O)[nH]nc5c4cc3-c3ccccc3)cc2)CCC1 [MK-2206] + CC(C)C[C@H](NC(=O)[C@H](Cc1ccccc1)NC(=O)c1cnccn1)B(O)O [Bortezomib] (partner 0.002 µM)
In short: as §1

Pictilisib + Trametinib = compound: CS(=O)(=O)N1CCN(Cc2cc3nc(-c4cccc5[nH]ncc45)nc(N4CCOCC4)c3s2)CC1 [Pictilisib] + CC(=O)Nc1cccc(-n2c(=O)n(C3CC3)c(=O)c3c(Nc4ccc(I)cc4F)n(C)c(=O)c(C)c32)c1 [Trametinib] (partner 0.02 µM)
In short: as §1

MK-2206 + Decitabine = compound: NC1(c2ccc(-c3nc4ccn5c(=O)[nH]nc5c4cc3-c3ccccc3)cc2)CCC1 [MK-2206] + Nc1ncn([C@H]2C[C@H](O)[C@@H](CO)O2)c(=O)n1 [Decitabine] (partner 2 µM)
In short: as §1

MK-2206 + Trametinib = compound: NC1(c2ccc(-c3nc4ccn5c(=O)[nH]nc5c4cc3-c3ccccc3)cc2)CCC1 [MK-2206] + CC(=O)Nc1cccc(-n2c(=O)n(C3CC3)c(=O)c3c(Nc4ccc(I)cc4F)n(C)c(=O)c(C)c32)c1 [Trametinib] (partner 0.02 µM)
In short: as §1

Cell Line | relative viability (Pictilisib + OSI-027; first compound 0.02 µM) | relative viability (Pictilisib + OSI-027; first compound 0.06325 µM) | relative viability (Pictilisib + OSI-027; first compound 0.6325 µM) | relative viability (Pictilisib + OSI-027; first compound 2 µM) | relative viability (MK-2206 + Bortezomib; first compound 0.01 µM) | relative viability (MK-2206 + Bortezomib; first compound 0.03162 µM) | relative viability (MK-2206 + Bortezomib; first compound 0.3162 µM) | relative viability (MK-2206 + Bortezomib; first compound 1 µM) | relative viability (Pictilisib + Trametinib; first compound 0.02 µM) | relative viability (Pictilisib + Trametinib; first compound 0.06325 µM) | relative viability (Pictilisib + Trametinib; first compound 0.6325 µM) | relative viability (Pictilisib + Trametinib; first compound 2 µM) | relative viability (MK-2206 + Decitabine; first compound 0.01 µM) | relative viability (MK-2206 + Decitabine; first compound 0.03162 µM) | relative viability (MK-2206 + Decitabine; first compound 0.3162 µM) | relative viability (MK-2206 + Decitabine; first compound 1 µM) | relative viability (MK-2206 + Trametinib; first compound 0.01 µM) | relative viability (MK-2206 + Trametinib; first compound 0.03162 µM) | relative viability (MK-2206 + Trametinib; first compound 0.3162 µM) | relative viability (MK-2206 + Trametinib; first compound 1 µM)
NCI-H650 | 0.563 | 0.555 | 0.425 | 0.321 | 0.898 | 0.932 | 0.642 | 0.656 | 1.03 | 0.969 | 0.8 | 0.5 | 0.344 | 0.306 | 0.347 | 0.284 | 0.981 | 0.98 | 1.03 | 0.991
IA-LM |  |  |  |  | 0.868 | 0.928 | 0.887 | 0.699 |  |  |  |  |  |  |  |  |  |  |  | 
NCI-H1793 | 0.255 | 0.236 | 0.185 | 0.149 |  |  |  |  | 0.397 | 0.448 | 0.332 | 0.211 | 0.477 | 0.552 | 0.439 | 0.435 | 0.4 | 0.433 | 0.298 | 0.391
CAL-12T | 0.8 | 0.642 | 0.339 | 0.167 | 0.971 | 0.928 | 0.947 | 0.963 | 0.332 | 0.331 | 0.221 | 0.178 |  |  |  |  | 0.406 | 0.307 | 0.307 | 0.313
NCI-H1944 | 0.403 | 0.345 | 0.249 | 0.179 |  |  |  |  | 0.451 | 0.349 | 0.337 | 0.183 | 0.414 | 0.449 | 0.508 | 0.446 | 0.405 | 0.41 | 0.392 | 0.385
SW 900 | 0.655 | 0.715 | 0.501 | 0.289 |  |  |  |  | 0.899 | 0.753 | 0.683 | 0.364 | 0.449 |  | 0.399 | 0.391 | 0.809 |  | 0.702 | 0.86
NCI-H1623 | 0.431 | 0.414 | 0.342 | 0.244 |  |  |  |  |  |  |  |  |  |  |  |  |  |  |  | 
SK-MES-1 | 0.596 | 0.566 | 0.334 | 0.215 |  |  |  |  | 0.537 | 0.434 | 0.331 | 0.226 | 0.383 | 0.4 | 0.371 | 0.321 | 0.519 | 0.47 | 0.467 | 0.515
LK-2 | 0.183 | 0.208 | 0.15 | 0.142 |  |  |  |  | 0.738 | 0.654 | 0.558 | 0.257 | 0.36 | 0.355 | 0.286 | 0.12 | 0.826 | 0.775 | 0.694 | 0.602
NCI-H358 | 0.684 | 0.664 | 0.357 | 0.127 |  |  |  |  | 0.132 | 0.141 | 0.122 | 0.104 | 0.216 | 0.208 | 0.201 | 0.217 | 0.146 | 0.145 | 0.132 | 0.117
ABC-1 | 0.434 | 0.462 | 0.337 | 0.335 | 0.302 | 0.219 | 0.43 | 0.352 |  |  |  |  | 1.19 | 1.25 | 1.06 | 1.02 |  |  |  | 
EBC-1 |  |  |  |  | 0.603 | 0.47 | 0.345 | 0.197 |  |  |  |  |  |  |  |  |  |  |  | 
NCI-H1703 |  |  |  |  | 0.338 | 0.28 | 0.316 | 0.223 |  |  |  |  |  |  |  |  |  |  |  | 
NCI-H1395 | 0.796 | 0.658 | 0.568 | 0.392 |  |  |  |  | 1.03 | 1.03 | 0.866 | 0.477 | 0.703 | 0.853 | 0.705 | 0.657 | 1.02 | 1.16 | 0.804 | 0.897
NCI-H1563 | 0.737 | 0.713 | 0.554 | 0.57 | 0.869 | 0.947 | 0.636 | 0.768 |  |  |  |  |  |  |  |  |  |  |  | 
NCI-H2228 | 0.587 | 0.431 | 0.283 | 0.155 | 0.973 | 1.04 | 0.643 | 0.413 | 0.391 | 0.519 | 0.199 | 0.148 |  |  |  |  | 0.375 | 0.433 | 0.284 | 0.448
NCI-H1299 |  |  |  |  | 1.04 | 1.02 | 1.09 | 1 |  |  |  |  |  |  |  |  |  |  |  | 
NCI-H2170 | 0.776 | 0.711 | 0.642 | 0.418 |  |  |  |  | 0.864 | 0.916 | 0.784 | 0.587 | 0.482 | 0.462 | 0.462 | 0.443 | 0.943 | 0.898 | 0.878 | 0.87
A549 |  |  |  |  |  |  |  |  |  |  |  |  | 0.304 | 0.26 | 0.24 | 0.294 |  |  |  | 
NCI-H522 | 0.635 | 0.719 | 0.64 | 0.57 |  |  |  |  | 0.884 | 0.721 | 0.572 | 0.43 | 0.701 | 0.677 | 0.612 | 0.654 | 0.817 | 0.746 | 0.635 | 0.672
NCI-H1648 | 0.256 | 0.248 | 0.275 | 0.266 |  |  |  |  | 0.363 | 0.401 | 0.236 | 0.222 | 0.405 | 0.574 | 0.483 | 0.575 | 0.491 | 0.497 | 0.591 | 0.497
NCI-H2342 | 0.541 | 0.605 | 0.551 | 0.417 |  |  |  |  | 0.77 | 0.747 | 0.724 | 0.476 | 0.687 | 0.792 | 0.787 | 0.629 | 0.909 | 0.8 | 0.664 | 0.682
Calu-6 |  |  |  |  | 0.991 | 1.08 | 1.01 | 1.15 |  |  |  |  |  |  |  |  |  |  |  | 
